Key:
hOAT3 = molecular target: T1, hOAT3 (Homo sapiens, UniProt Q8TCC7); assay: Inhibition of hOAT3-mediated E3S uptake, stably transfected 293 cells; type: cell-based; details: substrate 3 µM E3S, median (95% CI)
T1 construct: expressed in transfected cells; host or cells: HEK-293 (293) cells, pEBTetD plasmid, doxycycline-induced
T1 sequence (Q8TCC7 1-542): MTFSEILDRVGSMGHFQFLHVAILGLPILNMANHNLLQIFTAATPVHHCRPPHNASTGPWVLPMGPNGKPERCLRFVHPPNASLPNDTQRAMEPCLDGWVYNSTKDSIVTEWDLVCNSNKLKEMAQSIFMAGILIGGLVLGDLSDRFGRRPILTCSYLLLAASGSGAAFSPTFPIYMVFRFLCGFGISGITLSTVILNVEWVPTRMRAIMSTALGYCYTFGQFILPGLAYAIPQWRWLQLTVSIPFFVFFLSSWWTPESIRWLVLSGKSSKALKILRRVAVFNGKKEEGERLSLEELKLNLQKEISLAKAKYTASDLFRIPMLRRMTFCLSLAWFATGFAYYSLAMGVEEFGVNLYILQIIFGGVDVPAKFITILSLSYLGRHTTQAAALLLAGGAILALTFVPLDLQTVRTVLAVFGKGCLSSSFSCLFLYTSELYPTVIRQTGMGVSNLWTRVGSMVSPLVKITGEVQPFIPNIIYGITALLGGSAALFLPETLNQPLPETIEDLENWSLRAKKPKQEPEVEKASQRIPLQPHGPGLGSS
Excerpt: (§1) We characterized the inhibitory potential of iohexol on major drug transporters recommended by regulatory agencies, which were previously assessed in a clinical transporter phenotyping cocktail study. These transporters include hOAT1, hOAT3, hOCT1, hOCT2, hMATE1, hMATE2K, human organic anion transporter polypeptides (hOATP)1B1, hOATP1B3, and human multidrug resistance protein (hMDR)1. Additionally, we investigated whether iohexol is a substrate for any of the renal transporters among these, including hOAT1/3, hOCT1/2, and hMATE1/2K. Cell‐based uptake assays were used to assess the activities of hOAT1/3, hOCT1/2, hMATE1/2K, and hOATP1B1/1B3. Inside‐out membrane vesicle uptake assays were used to evaluate the activity of hMDR1.
(§2) To determine the maximal inhibitory potential of iohexol, intracellular accumulation of a standard substrate was measured with and without the clinically relevant highest concentrations of iohexol. Control inhibitors were tested in each experiment.
(§3) In all subsequent in vitro studies, control experiments were conducted to validate the results. These included positive controls for substrates and inhibitors, as well as cells either without transporter expression or transfected with an empty vector, and control vesicles. Each condition, including cells or vesicles with the transporter and their respective controls, was analyzed in at least three replicates. For detailed information on materials, methods, and data analysis techniques used, refer to the Supporting Information. […]
(§4) R version 4.2.1 (R Foundation for Statistical Computing, Vienna, Austria) was used for statistical evaluations and data visualization. The data analysis approach for the in vitro study was detailed by Hsin CH et al..^1 In brief, for transport assays, the initial uptake rate was calculated by normalizing the substrate concentration to both the protein concentration and the incubation time for each dish or well. The transporter-mediated uptake rate (net uptake) was determined by performing an element-wise subtraction of uptake rates from different conditions. […]

hOCT2 = molecular target: T2, hOCT2 (Homo sapiens, UniProt O15244); assay: Inhibition of hOCT2-mediated metformin uptake, stably transfected 293 cells; type: cell-based; details: substrate 5 µM metformin, median (95% CI)
T2 construct: expressed in transfected cells; host or cells: HEK-293 (293) cells, pEBTetD plasmid, doxycycline-induced
T2 sequence (O15244 1-555): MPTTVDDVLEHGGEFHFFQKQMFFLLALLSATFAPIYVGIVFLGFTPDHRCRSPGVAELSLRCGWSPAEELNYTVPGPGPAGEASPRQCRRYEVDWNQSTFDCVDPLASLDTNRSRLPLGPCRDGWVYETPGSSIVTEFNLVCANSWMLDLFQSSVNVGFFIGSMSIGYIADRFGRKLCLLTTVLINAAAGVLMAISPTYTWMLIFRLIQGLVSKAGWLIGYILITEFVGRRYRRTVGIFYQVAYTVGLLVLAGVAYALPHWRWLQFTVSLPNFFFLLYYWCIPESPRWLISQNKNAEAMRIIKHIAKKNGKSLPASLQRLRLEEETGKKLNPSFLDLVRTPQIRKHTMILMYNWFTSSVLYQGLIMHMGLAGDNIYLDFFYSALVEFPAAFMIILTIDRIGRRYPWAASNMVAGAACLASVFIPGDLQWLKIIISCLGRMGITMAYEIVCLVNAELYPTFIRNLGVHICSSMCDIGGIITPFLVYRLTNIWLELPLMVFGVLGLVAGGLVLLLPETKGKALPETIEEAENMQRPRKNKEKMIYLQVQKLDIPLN
Excerpt: as §1, §2, §3, §4

[1] = system: human Phase I or Phase II enzymes; design: method as in PMID 32948918; details: cited from earlier work
[2] = HEK293, 1 mM iohexol, read-out: Inhibitory effect (% reduction of specific activity)
[3] = HEK293, 20 mM iohexol, read-out: Inhibitory effect (% reduction of specific activity)

SMILES: CC(=O)N(CC(O)CO)c1c(I)c(C(=O)NCC(O)CO)c(I)c(C(=O)NCC(O)CO)c1I (stereo not shown) [iohexol]
- Inhibitory effect (% reduction of specific activity) (hOAT3; 20 mM iohexol): no notable inhibitory effects
- inhibition at 1000 µM (hOAT3; [2]): -4%
- inhibition at 20000 µM (hOAT3; [3]): -3.5%
- Inhibitory effect (% reduction of specific activity) (hOCT2; 20 mM iohexol): no notable inhibitory effects
- inhibition at 1000 µM (hOCT2; [2]): -13%
- inhibition at 20000 µM (hOCT2; [3]): -23%
- Inhibition of human Phase I or Phase II enzymes [1]: does not inhibit

From PMC11788587, “Validating Low‐Dose Iohexol as a Marker for Glomerular Filtration Rate by In Vitro and In Vivo Studies” (Clinical and Translational Science, 2025)
